In patent US8507472B2 (priority 2010, dated 2013):
Like-named read-outs stand apart in the source and are kept apart here.

How the values were obtained:
[1] = system: Botrytis cinerea; experiment: Botrytis test (bean)/protective; format: in vivo; conditions: 100 ppm active compound, protective, evaluation 2 days after inoculation
Method: (§1) Solvents: 24.5 parts by weight of acetone
(§2) • 24.5 parts by weight of dimethylacetamide Emulsifier: 1 part by weight of alkylaryl polyglycol ether
(§3) To produce a suitable preparation of active compound, 1 part by weight of active compound is mixed with the stated amounts of solvents and emulsifier, and the concentrate is diluted with water to the desired concentration.
To test for protective activity, young plants are sprayed with the active compound preparation at the stated application rate. After the spray coating has dried on, 2 small pieces of agar colonized by Botrytis cinerea are placed onto each leaf. The inoculated plants are placed in a dark chamber at about 20° C. and 100% relative atmospheric humidity.
2 days after the inoculation, the size of the infected areas on the leaves is evaluated. 0% means an efficacy which corresponds to that of the control, whereas an efficacy of 100% means that no infection is observed.

[2] = system: Leptosphaeria nodorum; experiment: Leptosphaeria nodorum test (wheat)/protective; format: in vivo
Method: Solvent: 49 parts by weight of N,N-dimethylformamide
(§4) Emulsifier: 1 part by weight of alkylaryl polyglycol ether
To produce a suitable preparation of active compounds, 1 part by weight of active compound is mixed with the stated amounts of solvent and emulsifier, and the concentrate is diluted with water to the desired concentration.
To test for protective activity, young wheat plants are sprayed with the active compound preparation at the stated application rate. 1 day after the treatment, the plants are inoculated with an aqueous spore suspension of Leptosphaeria nodorum and then remain at 100% rel. atmospheric humidity and 22° C. for 48 h. The plants are then placed in a greenhouse at 90% rel. atmospheric humidity and a temperature of 22° C.
Evaluation is carried out 7-9 days after the inoculation. 0% means an efficacy which corresponds to that of the control, whereas an efficacy of 100% means that no infection is observed.

[3] = system: Pyrenophora teres; experiment: Pyrenophora teres test (barley)/protective; format: in vivo
How it was run: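 Protective test: young barley plants sprayed at the stated rate with compound in DMF/alkylaryl polyglycol ether diluted with water, inoculated with P. teres spores 1 day later, kept 48 h at 100% rel. humidity and 22° C., then greenhouse at 80% and 20° C. Efficacy scored 7-9 days post-inoculation (0% = control, 100% = no infection).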

[4] = system: Sphaerotheca fuliginea; experiment: Sphaerotheca test (cucumber)/protective; format: in vivo
How it was run: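 Protective test: young cucumber plants sprayed with compound (DMF/alkylaryl polyglycol ether concentrate diluted in water) at the stated rate, inoculated with S. fuliginea spores 1 day later, then kept in greenhouse at 23 °C, 70% RH. Efficacy scored 7 days post-inoculation; 0% equals untreated control, 100% means no infection.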

[5] = system: Uromyces appendiculatus; experiment: Uromyces test (bean)/protective; format: in vivo; conditions: in vivo
Method: as §1, §2, §3
(§5) To test for protective activity, young plants are sprayed with the active compound preparation at the stated application rate. After the spray coating has dried on, the plants are inoculated with an aqueous spore suspension of the bean rust pathogen Uromyces appendiculatus and then remain in an incubation cabin at about 20° C. and 100% relative atmospheric humidity for 1 day.
(§6) The plants are then placed in a greenhouse at about 21° C. and a relative atmospheric humidity of about 90%.
(§7) Evaluation is carried out 10 days after the inoculation. 0% means an efficacy which corresponds to that of the control, whereas an efficacy of 100% means that no infection is observed.

[6] = system: Venturia inaequalis; experiment: Venturia test (apple)/protective; format: in vivo; conditions: 100 ppm active compound, protective, evaluation 10 days after inoculation
Method: Solvents: 24.5 parts by weight of acetone • 24.5 parts by weight of dimethylacetamide Emulsifier: 1 part by weight of alkylaryl polyglycol ether
as §3
as §5, with “conidia” for “spore”, “apple scab” for “bean rust”, “Venturia inaequalis” for “Uromyces appendiculatus”
as §6, §7

[7] = system: Alternaria solani; experiment: Alternaria test (tomato)/protective; format: in vivo
How it was run: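 Young tomato plants were sprayed with compound (DMF/emulsifier formulation diluted in water) and inoculated with A. solani spores 1 day later. Plants were kept 24 h at 100% RH and 22 °C, then at 96% RH and 20 °C. Efficacy was scored 7 days post-inoculation, where 0% equals untreated control and 100% means no infection.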

[8] = system: Phytophthora infestans; format: in vivo
[9] = system: DON/AcDON production; experiment: microbe, parasite or virus in culture; format: cell-based, Fusarium graminearum; conditions: 7 days at 28° C.
[10] = system: Fusarium graminearum; experiment: microbe, parasite or virus in culture; format: cell-based
[11] = log P determination by HPLC retention times (alkan-2-one calibration)
[12] = system: Fusarium nivale (var. majus); experiment: Fusarium nivale (var. majus) test (wheat)/protective; format: in vivo; conditions: 1000 ppm active compound, protective, evaluation 5 days after inoculation
Method: Solvent: 49 parts by weight of N,N-dimethylacetamide
as §4
(§8) To produce a suitable preparation of active compound, 1 part by weight of active compound is mixed with the stated amounts of solvent and emulsifier, and the concentrate is diluted with water to the desired concentration.
(§9) To test for protective activity, young plants are sprayed with the active compound preparation at the stated application rate.
After the spray coating has dried on, the plants are sprayed with spores of a spore suspension of Fusarium nivale (var. majus).
The plants are placed in a greenhouse chamber under a translucent incubation hood at 10° C. and 100% relative atmospheric humidity.
Evaluation is carried out 5 days after the inoculation. 0% means an efficacy which corresponds to that of the control, whereas an efficacy of 100% means that no infection is observed.

[13] = system: Puccinia triticina; experiment: Puccinia triticina test (wheat)/protective; format: in vivo; conditions: in vivo
Method: Solvent: 49 parts by weight of […]
as §4, §8, §9
After the spray coating has dried on, the plants are sprayed with spores of a spore suspension of Puccinia triticina. The plants remain in an incubation cabin at 20° C. and 100% relative atmospheric humidity for 48 hours.
The plants are placed in greenhouse at a temperature of about 20° C. and a relative atmospheric humidity of about 80%.
Evaluation is carried out 8 days after the inoculation. 0% means an efficacy which corresponds to that of the control, whereas an efficacy of 100% means that no infection is observed.

[14] = 500 ppm active compound, tomato, protective, evaluation 7 days after inoculation

Q: With CC1CCc2c(-c3ccnc(NC(=O)C4CC4)c3)c(-c3ccc(F)cc3)nn21 (stereo not shown) [Example 78] as the compound, how does the efficacy in % [1] read?
A: 100%

Q: And the efficacy in % ([2]; in vivo)?
A: 100%

Q: And the efficacy in % ([3]; in vivo)?
A: 95%

Q: What about the efficacy in % ([4]; in vivo) of the same compound?
A: 100%

Q: And the efficacy in % [5]?
A: 94%

Q: And the efficacy in % [6]?
A: 100%

Q: With CC(C)C(=O)Nc1cc(-c2c(-c3ccc(F)cc3)nn3c2CCOC3)ccn1 [Example 91] as the compound, how does the efficacy in % ([7]; in vivo) read?
A: 90%

Q: What about the efficacy in % [1] of the same compound?
A: 100%

Q: What about the efficacy in % ([2]; in vivo) of the same compound?
A: 78%

Q: What about the efficacy in % ([3]; in vivo) of the same compound?
A: 95%

Q: What about the efficacy in % ([4]; in vivo) of the same compound?
A: 100%

Q: And the efficacy in % [5]?
A: 95%

Q: What about the efficacy in % [6] of the same compound?
A: 95%

Q: For O=C(Cc1ccccc1)Nc1cc(-c2c(-c3ccccc3)nn3c2CCCC3)ccn1 [Example 35], which efficacy in % ([7]; in vivo) is on record?
A: 94%

Q: What about the efficacy in % [1] of the same compound?
A: 96%

Q: What about the efficacy in % ([2]; in vivo) of the same compound?
A: 90%

Q: What about the efficacy in % ([8]; in vivo) of the same compound?
A: 80%

Q: What about the efficacy in % ([3]; in vivo) of the same compound?
A: 78%

Q: What about the efficacy in % [6] of the same compound?
A: 95%

Q: With O=C(Nc1cc(-c2c(-c3ccccc3)nn3c2CCCC3)ccn1)c1ccccc1 [Example 33] as the compound, how does the efficacy in % ([7]; in vivo) read?
A: 89%

Q: And the efficacy in % [1]?
A: 98%

Q: And the efficacy in % ([2]; in vivo)?
A: 70%

Q: What about the efficacy in % ([8]; in vivo) of the same compound?
A: 70%

Q: And the efficacy in % ([3]; in vivo)?
A: 78%

Q: What about the efficacy in % ([4]; in vivo) of the same compound?
A: 95%

Q: And the efficacy in % [5]?
A: 95%

Q: And the efficacy in % [6]?
A: 95%

Q: And the “% inhibition of DON/AcDON at 50 μM” value [9]?
A: 99%

Q: What about the “% inhibition of the fungal growth of Fusarium graminearum at 50 μM” value (shortened to “% inhibition of the fungal growth … at 50 μM”) [10] of the same compound?
A: 100%

Q: Which results are given for Fc1ccc(-c2nn3c(c2-c2ccncc2)CCCC3)cc1 [Example 2, 2-(4-Fluorophenyl)-3-(pyridin-4-yl)-4,5,6,7-tetrahydropyrazolo[1,5-a]pyridine]?
A: efficacy in % [7, 14]: 94%; efficacy in % [1]: 100%; efficacy in % ([2]; 500 ppm active compound, wheat, protective, evaluation 7-9 days after inoculation): 80%; efficacy in % [8, 14]: 94%; efficacy in % ([3]; 500 ppm active compound, barley, protective, evaluation 7-9 days after inoculation): 95%; efficacy in % ([4]; 500 ppm active compound, cucumber, protective, evaluation 7 days after inoculation): 91%; efficacy in % [6]: 95%; inhibition at 50 µM ([9]; Fusarium graminearum, 168 h): 100%; inhibition at 50 µM ([10]; Fusarium graminearum, 72 h, read-out: % inhibition of the fungal growth of Fusarium graminearum at 50 μM): 99%; chromatographic logP ([11]; log P(HCOOH), HCOOH, preparation examples in the text): 1.03; chromatographic logP ([11]; log P, values marked [a] in Table 1): 1.03; chromatographic logP ([11]; log P, values marked [b] in Table 1): 2.43

Q: Which efficacy in % ([7]; in vivo) does the source give for CC(C)CC(=O)Nc1cc(-c2c(-c3ccsc3)nn3c2CCCC3)ccn1 [Example 64] here?
A: 100%

Q: And the efficacy in % [1]?
A: 100%

Q: And the efficacy in % ([2]; in vivo)?
A: 94%

Q: What about the efficacy in % ([8]; in vivo) of the same compound?
A: 80%

Q: What about the efficacy in % ([3]; in vivo) of the same compound?
A: 100%

Q: And the efficacy in % ([4]; in vivo)?
A: 86%

Q: What about the efficacy in % [5] of the same compound?
A: 78%

Q: And the efficacy in % [6]?
A: 99%

Q: And the “% inhibition of DON/AcDON at 50 μM” value [9]?
A: 100%

Q: And the “% inhibition of the fungal growth … at 50 μM” value [10]?
A: 100%

Q: Which efficacy in % [1] does the source give for COC1CCCn2nc(-c3ccc(F)cc3)c(-c3ccncc3)c21 (stereo not shown) [Example 85] here?
A: 100%

Q: What about the efficacy in % ([2]; in vivo) of the same compound?
A: 75%

Q: And the efficacy in % ([8]; in vivo)?
A: 90%

Q: What about the efficacy in % ([3]; in vivo) of the same compound?
A: 100%

Q: What about the efficacy in % ([4]; in vivo) of the same compound?
A: 85%

Q: And the efficacy in % [5]?
A: 85%

Q: Which efficacy in % ([7]; in vivo) does the source give for O=C(Nc1cc(-c2c(-c3cccs3)nn3c2CCCC3)ccn1)C1CC1 [Example 89] here?
A: 90%

Q: And the efficacy in % [1]?
A: 100%

Q: What about the efficacy in % ([2]; in vivo) of the same compound?
A: 80%

Q: And the efficacy in % ([8]; in vivo)?
A: 90%

Q: What about the efficacy in % ([3]; in vivo) of the same compound?
A: 95%

Q: What about the efficacy in % ([4]; in vivo) of the same compound?
A: 100%

Q: And the efficacy in % [5]?
A: 95%

Q: What about the efficacy in % [6] of the same compound?
A: 94%

Q: For O=CNc1cc(-c2c(-c3ccccc3)nn3c2CCCC3)ccn1 [Example 37], which efficacy in % ([7]; in vivo) is on record?
A: 95%

Q: What about the efficacy in % [12] of the same compound?
A: 86%

Q: And the efficacy in % ([2]; in vivo)?
A: 90%

Q: And the efficacy in % ([8]; in vivo)?
A: 70%

Q: And the efficacy in % [13]?
A: 78%

Q: And the efficacy in % ([3]; in vivo)?
A: 100%

Q: And the “% inhibition of DON/AcDON at 50 μM” value [9]?
A: 99%

Q: And the “% inhibition of the fungal growth … at 50 μM” value [10]?
A: 93%
